In one experiment the target is D(3) dopamine receptor (Homo sapiens, UniProt P35462). As to the kind of experiment: Binding affinity against human Dopamine receptor D3 in Chinese hamster ovary cells using [3H]spiperone. The format is cell-based.
In the next experiment the target is D(2) dopamine receptor (Homo sapiens, UniProt P14416). As to the kind of experiment: Binding affinity against human Dopamine receptor D2 in mouse LtK- cells using [3H]spiperone. It is filed as cell-based.
D(2) dopamine receptor, sequence (P14416 whole entry): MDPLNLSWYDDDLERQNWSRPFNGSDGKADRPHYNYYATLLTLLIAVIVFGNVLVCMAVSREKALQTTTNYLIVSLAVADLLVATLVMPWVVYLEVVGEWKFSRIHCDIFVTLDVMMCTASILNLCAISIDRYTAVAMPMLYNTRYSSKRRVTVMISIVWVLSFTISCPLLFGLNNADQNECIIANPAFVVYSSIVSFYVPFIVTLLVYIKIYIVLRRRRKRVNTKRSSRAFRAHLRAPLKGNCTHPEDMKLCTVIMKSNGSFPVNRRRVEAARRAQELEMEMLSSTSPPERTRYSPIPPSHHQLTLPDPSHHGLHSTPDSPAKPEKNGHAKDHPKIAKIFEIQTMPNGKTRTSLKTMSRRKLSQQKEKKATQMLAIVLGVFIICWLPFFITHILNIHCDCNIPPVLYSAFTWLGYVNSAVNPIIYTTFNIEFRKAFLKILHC

D(3) dopamine receptor, sequence (P35462 whole entry): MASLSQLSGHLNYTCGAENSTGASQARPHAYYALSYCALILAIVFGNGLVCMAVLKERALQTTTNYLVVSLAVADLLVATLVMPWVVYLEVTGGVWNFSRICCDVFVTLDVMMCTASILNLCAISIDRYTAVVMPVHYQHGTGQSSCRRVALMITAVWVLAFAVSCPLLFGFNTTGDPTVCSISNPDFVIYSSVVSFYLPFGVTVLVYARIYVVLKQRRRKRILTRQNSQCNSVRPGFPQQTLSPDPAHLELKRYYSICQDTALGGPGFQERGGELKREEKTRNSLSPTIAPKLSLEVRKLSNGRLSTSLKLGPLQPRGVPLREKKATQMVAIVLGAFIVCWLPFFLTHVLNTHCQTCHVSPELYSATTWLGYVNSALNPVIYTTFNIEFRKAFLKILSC

`CCCN(CCC)[C@@H]1CCc2c(ccc(C(O)Cc3ccc(Cl)c(Cl)c3)c2OC)C1` (stereo not given in full) had a Ki at D(3) dopamine receptor of 20 nM.

Regarding `CCCN(CCC)C1CCc2cc(CCc3ccc(C(=O)OCC)cc3)ccc2C1` (stereo not given), the inhibition constant Ki at D(3) dopamine receptor was 2 nM; on D(2) dopamine receptor it was 251 nM.

On to `CCCN(CCC)C1CCc2cc(CCc3ccc(/C(C)=N\O)cc3)ccc2C1` (stereo not given), for which the results for the Ki on D(3) dopamine receptor and on D(2) dopamine receptor were 2 nM and 794 nM, respectively.

For the molecule `CCCN(CCC)C1CCc2cc(CCc3ccc(O)cc3)ccc2C1` (stereo not given), the results for the Ki on D(3) dopamine receptor and on D(2) dopamine receptor were 12.6 nM and 316 nM, respectively.

Take `CCCN(CCC)C1CCc2cc(CCc3ccc(C(N)=O)cc3)ccc2C1` (stereo not given): the Ki on D(3) dopamine receptor was 631 nM.

For the molecule `CCCN(CCC)[C@@H]1CCc2c(ccc(C(O)Cc3ccccc3)c2OC)C1` (stereo not given in full), the inhibition constant (Ki) on D(3) dopamine receptor was 63.1 nM; on D(2) dopamine receptor it was 1000 nM.

As to `CCCN(CCC)C1CCc2cc(CCc3ccccc3)ccc2C1` (stereo not given), the inhibition constant (Ki) at D(3) dopamine receptor is 3.98 nM; on D(2) dopamine receptor it was 398 nM.

For `CCCN(CCC)[C@@H]1CCc2cc(CS(=O)(=O)c3ccc(I)cc3)ccc2C1`, the Ki at D(3) dopamine receptor was 0.158 nM; on D(2) dopamine receptor, 200 nM.

At D(3) dopamine receptor, `CCCN(CCC)[C@@H]1CCc2c(ccc(CCc3ccc(NS(C)(=O)=O)cc3)c2OC)C1` had a Ki of 501 nM. That is a sub-micromolar value.

On to `CCCN(CCC)C1CCc2cc(CSc3ccc(OC)cc3)ccc2C1` (stereo not given), for which the values for the Ki on D(3) dopamine receptor and at D(2) dopamine receptor were 1.26 nM and 200 nM, respectively.

In the case of `CCCN(CCC)[C@@H]1CCc2cc(CS(=O)(=O)c3ccc(OC)cc3)ccc2C1`, the Ki on D(3) dopamine receptor was 1.26 nM; on D(2) dopamine receptor it was 501 nM.

For `CCCN(CCC)[C@@H]1CCc2c(ccc(C(O)Cc3ccc(Cl)cc3)c2OC)[C@@H]1C` (stereo not given in full), the Ki on D(3) dopamine receptor is 25.1 nM; on D(2) dopamine receptor it was 631 nM.

Take `CCCN(CCC)[C@H]1CCc2cc(CCc3ccc(Cl)cc3)ccc2C1`: the inhibition constant (Ki) on D(3) dopamine receptor was 10 nM; on D(2) dopamine receptor, 126 nM.

As for `CCCN(CCC)[C@@H]1CCc2c(ccc(CCc3ccc(Cl)cc3)c2OC)C1`, the Ki at D(3) dopamine receptor was 5.01 nM; on D(2) dopamine receptor, 126 nM.

For `CCCN(CCC)[C@@H]1CCc2cc(CCc3ccc(Cl)cc3)ccc2C1`, the values for the inhibitory constant (Ki) on D(3) dopamine receptor and at D(2) dopamine receptor were 3.98 nM and 398 nM, respectively.

At D(3) dopamine receptor, `CCCN(CCC)[C@@H]1CCc2c(ccc(CCc3ccccc3)c2OC)C1` showed a Ki of 20 nM.

For the molecule `CCCN(CCC)[C@@H]1CCc2c(ccc(C(O)Cc3ccc(OC)cc3)c2OC)C1` (stereo not given in full), at D(3) dopamine receptor, the affinity, expressed as Ki, was 50.1 nM. Against the preceding molecule, the Ki is about 2.5-fold higher.

With `CCCN(CCC)C1CCc2cc(CN(C(=O)OC)c3ccc(OC)cc3)ccc2C1` (stereo not given), the inhibitory constant (Ki) at D(3) dopamine receptor is 6.31 nM; at D(2) dopamine receptor it was 794 nM.

In the case of `CCCN(CCC)[C@@H]1CCc2cc(CCc3ccc(C(C)=O)cc3)ccc2C1`, the Ki at D(3) dopamine receptor was 3.16 nM; on D(2) dopamine receptor it was 794 nM.

Turning to `CCCN(CCC)C1CCc2cc(CCc3ccc(C(C)=O)cc3)ccc2C1` (stereo not given), the Ki on D(3) dopamine receptor was 3.98 nM; at D(2) dopamine receptor, 1000 nM.

For `CCCN(CCC)C1CCc2cc(CCc3ccc(S(C)(=O)=O)cc3)ccc2C1` (stereo not given), the affinity on D(3) dopamine receptor, expressed as Ki, was 1580 nM.

In the case of `CCCN(CCC)[C@@H]1CCc2c(OC)cccc2[C@@H]1C`, the values for the Ki on D(3) dopamine receptor and at D(2) dopamine receptor were 12.6 nM and 63.1 nM, respectively.

In the case of `CCCN(CCC)C1CCc2cc(CS(=O)(=O)c3ccc(OC)cc3)ccc2C1` (stereo not given), the inhibitory constant (Ki) at D(3) dopamine receptor was 1.58 nM; at D(2) dopamine receptor, 631 nM.

Turning to `CCCN(CCC)C1CCc2cc(CCc3ccc(C(=O)O)cc3)ccc2C1` (stereo not given), the affinity on D(3) dopamine receptor corresponds to a Ki of 3160 nM. That is a single-digit micromolar value.

For the molecule `CCCN(CCC)[C@@H]1CCc2cc(CCc3ccc(/C(C)=N\O)cc3)ccc2C1`, the inhibitory constant (Ki) on D(3) dopamine receptor is 1 nM; on D(2) dopamine receptor, 316 nM.

Regarding `CCCN(CCC)C1CCc2cc(CN(C(C)=O)c3ccc(OC)cc3)ccc2C1` (stereo not given), the Ki was 7.94 nM at D(3) dopamine receptor and 631 nM on D(2) dopamine receptor.

Consider `CCCN(CCC)C1CCc2cc(CN(C(N)=O)c3ccc(OC)cc3)ccc2C1` (stereo not given), for which the Ki at D(3) dopamine receptor was 25.1 nM; at D(2) dopamine receptor it was 6310 nM.

Turning to `CCCN(CCC)[C@@H]1CCc2c(ccc(CCc3ccc(C(F)(F)F)cc3)c2OC)C1`, the Ki on D(3) dopamine receptor was 6.31 nM; at D(2) dopamine receptor, 100 nM.

`CCCN(CCC)C1CCc2cc(CCc3ccc(OC)cc3)ccc2C1` (stereo not given): the inhibition constant (Ki) at D(3) dopamine receptor is 3.16 nM; at D(2) dopamine receptor, 251 nM.

For the molecule `CCCN(CCC)[C@@H]1CCc2c(ccc(C(O)Cc3ccc(Cl)cc3)c2OC)C1` (single isomer, unassigned; isomer I), the Ki was 6.31 nM on D(3) dopamine receptor and 316 nM at D(2) dopamine receptor.

Take `CCCN(CCC)[C@@H]1CCc2c(ccc(C(O)Cc3ccc(Cl)cc3)c2OC)C1` (stereo in doubt): the results for the Ki on D(3) dopamine receptor and on D(2) dopamine receptor were 50.1 nM and 1260 nM, respectively.

The values above are taken from ChEMBL document CHEMBL1129777, “Novel 6-substituted 2-aminotetralins with potent and selective affinity for the dopamine D3 receptor” (Bioorg Med Chem Lett, 1996).
